In patent publication US20250270172A1, “Pyrimidine Derivatives As Modulators of the 5-HT2A Serotonin Receptor Useful For The Treatment of Disorders Related Thereto” (Arena Pharmaceuticals, Inc., priority 2020, published 2025):
Read-outs that look alike come from different tables or passages of the source.

Target: 5-HT2A (Homo sapiens (Human), UniProt P28223)
Assay: Radioligand binding assay, [^3H]5-HT competition, 5-HT2A
Conditions: read-out: 5-HT2A serotonin binding Ki value
[1] = [^3H]5-HT radioligand, membranes of HEK293 cells expressing recombinant 5-HT2A, Ki from IC50 by Cheng-Prusoff

5-HT2A, sequence (P28223 whole entry): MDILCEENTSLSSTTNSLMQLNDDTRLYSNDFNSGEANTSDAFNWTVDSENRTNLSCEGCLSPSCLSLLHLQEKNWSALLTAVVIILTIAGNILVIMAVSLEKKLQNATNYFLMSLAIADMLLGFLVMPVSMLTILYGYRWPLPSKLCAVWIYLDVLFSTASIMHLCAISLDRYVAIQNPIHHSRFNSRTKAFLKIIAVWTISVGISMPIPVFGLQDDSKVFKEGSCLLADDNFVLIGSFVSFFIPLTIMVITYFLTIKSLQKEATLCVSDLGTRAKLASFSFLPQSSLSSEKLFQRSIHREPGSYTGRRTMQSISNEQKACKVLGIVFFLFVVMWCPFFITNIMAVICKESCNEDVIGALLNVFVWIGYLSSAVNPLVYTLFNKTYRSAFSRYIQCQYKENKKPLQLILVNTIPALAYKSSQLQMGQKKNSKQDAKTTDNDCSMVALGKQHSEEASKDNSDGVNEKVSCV

Compound `Cc1ncnc(C)c1-c1cc(NC(=O)c2ncccc2F)ccc1OCCN1CCC1` [Compound 330, N-(4-(2-(azetidin-1-yl)ethoxy)-3-(4,6-dimethylpyrimidin-5-yl)phenyl)-3-fluoropicolinamide] has a Ki [1] of 0.334 µM.
`Cc1ncnc(C)c1-c1cc(NC(=O)c2cnccc2F)ccc1OCCN1CCC1` [Compound 331, N-(4-(2-(azetidin-1-yl)ethoxy)-3-(4,6-dimethylpyrimidin-5-yl)phenyl)-4-fluoronicotinamide] was tested, and the Ki [1] was 0.0237 µM.
`Cc1ncnc(C)c1-c1cc(NC(=O)c2ccncc2F)ccc1OCCN1CCC1` [Compound 332, N-(4-(2-(azetidin-1-yl)ethoxy)-3-(4,6-dimethylpyrimidin-5-yl)phenyl)-3-fluoroisonicotinamide] was tested, and the Ki [1] was 0.0186 µM.
`Cc1ncnc(C)c1-c1cc(NC(=O)c2ncncc2F)ccc1OCCN1CCC1` [Compound 333, N-(4-(2-(azetidin-1-yl)ethoxy)-3-(4,6-dimethylpyrimidin-5-yl)phenyl)-5-fluoropyrimidine-4-carboxamide] was tested, and the Ki [1] was 0.224 µM.
Work on `CC(=O)N1CCN(CCOc2ccc(NC(=O)C3CC3)cc2-c2c(C)ncnc2C)CC1` [Compound 334, N-[4-[2-(4-acetylpiperazin-1-yl)ethoxy]-3-(4,6-dimethylpyrimidin-5-yl)phenyl]cyclopropanecarboxamide] yielded a Ki [1] of 0.0176 µM.
With `Cc1ncnc(C)c1-c1cc(NC(=O)C2CC2)ccc1OCCN1CCC(CC(=O)O)CC1` [Compound 335, 2-[1-[2-[4-(cyclopropanecarbonylamino)-2-(4,6-dimethylpyrimidin-5-yl)phenoxy]ethyl]-4-piperidyl]acetic acid] the Ki [1] was 0.196 µM.
`Cc1ncnc(C)c1-c1cc(NC(=O)C2CC2)ccc1OCCN1C[C@@H]2C[C@H]1CO2` [Compound 336, N-[3-(4,6-dimethylpyrimidin-5-yl)-4-[2-[(1S,4S)-2-oxa-5-azabicyclo[2.2.1]heptan-5-yl]ethoxy]phenyl]cyclopropanecarboxamide] was tested, and the Ki [1] was 0.00642 µM.
`Cc1ncnc(C)c1-c1cc(NC(=O)C2CC2)ccc1OCCN1[C@@H]2COC[C@H]1C2` [Compound 337, N-[3-(4,6-dimethylpyrimidin-5-yl)-4-[2-[(1S,5R)-3-oxa-6-azabicyclo[3.1.1]heptan-6-yl]ethoxy]phenyl]cyclopropanecarboxamide] was tested, and the Ki [1] was 0.00729 µM.
`Cc1ncnc(C)c1-c1cc(NC(=O)C2CC2)ccc1OCCN1CCC(CC(=O)O)C1` (centres unmarked) [Compound 338, 2-[1-[2-[4-(cyclopropanecarbonylamino)-2-(4,6-dimethylpyrimidin-5-yl)phenoxy]ethyl]pyrrolidin-3-yl]acetic acid] showed a Ki of 0.485 µM.
`Cc1ncnc(C)c1-c1cc(NC(=O)C2CC2)ccc1OCCN1CCN(C(=O)CO)CC1` [Compound 339, N-[3-(4,6-dimethylpyrimidin-5-yl)-4-[2-[4-(2-hydroxyacetyl)piperazin-1-yl]ethoxy]phenyl]cyclopropanecarboxamide] was tested, and the Ki [1] was 0.0184 µM.
Work on `Cc1ncnc(C)c1-c1cc(NC(=O)C2CC2)ccc1OCCN1CCN(C(=O)C(=O)O)CC1` [Compound 340, 2-[4-[2-[4-(cyclopropanecarbonylamino)-2-(4,6-dimethylpyrimidin-5-yl)phenoxy]ethyl]piperazin-1-yl]-2-oxo-acetic acid] yielded a Ki [1] of 0.374 µM.
`Cc1ncnc(C)c1-c1cc(NC(=O)C2CC2)ccc1OCCN1CCN(C=O)CC1` [Compound 341, N-[3-(4,6-dimethylpyrimidin-5-yl)-4-[2-(4-formylpiperazin-1-yl)ethoxy]phenyl]cyclopropanecarboxamide] was tested, and the Ki [1] was 0.00984 µM.
With `Cc1ncnc(C)c1-c1cc(NC(=O)C2CC2)ccc1OCCN1CCN(S(C)(=O)=O)CC1` [Compound 342, N-[3-(4,6-dimethylpyrimidin-5-yl)-4-[2-(4-methylsulfonylpiperazin-1yl)ethoxy]phenyl]cyclopropanecarboxamide] the Ki [1] was 0.00695 µM.
Work on `Cc1ncnc(C)c1-c1cc(NC(=O)C2CC2)ccc1OCCN1CCN2C(=O)OCC2C1` (centres unmarked) [Compound 343, N-[3-(4,6-dimethylpyrimidin-5-yl)-4-[2-(3-oxo-5,6,8,8a-tetrahydro-1H-oxazolo[3,4-a]pyrazin-7-yl)ethoxy]phenyl]cyclopropanecarboxamide] yielded a Ki [1] of 0.0484 µM.
Compound `Cc1ncnc(C)c1-c1cc(NC(=O)C2CC2)ccc1OCCN1CC2(COC2)C1` [Compound 345, N-(4-(2-(2-oxa-6-azaspiro[3.3]heptan-6-yl)ethoxy)-3-(4,6-dimethylpyrimidin-5-yl)phenyl)cyclopropanecarboxamide] has a Ki [1] of 0.0195 µM.
`Cc1ncnc(C)c1-c1cc(NC(=O)C2CC2)ccc1OCCN1CCN2C(=O)CCC2C1` (centres unmarked) [Compound 346, N-(3-(4,6-dimethylpyrimidin-5-yl)-4-(2-(6-oxohexahydropyrrolo[1,2-a]pyrazin-2 (1H)-yl)ethoxy)phenyl)cyclopropanecarboxamide] showed a Ki [1] of 0.031 µM.
In the case of `Cc1ncnc(C)c1-c1cc(NC(=O)C2CC2)ccc1OCCN1CCC2(CC1)CNC2=O` [Compound 347, N-(3-(4,6-dimethylpyrimidin-5-yl)-4-(2-(1-oxo-2,7-diazaspiro[3.5]nonan-7-yl)ethoxy)phenyl)cyclopropanecarboxamide], the Ki [1] is reported as 0.0423 µM.
With `Cc1ncnc(C)c1-c1cc(NC(=O)C2CC2)ccc1OCCN1CCC2(CC1)CC(=O)N2` [Compound 348, N-(3-(4,6-dimethylpyrimidin-5-yl)-4-(2-(2-oxo-1,7-diazaspiro[3.5]nonan-7-yl)ethoxy)phenyl)cyclopropanecarboxamide] the Ki [1] was 0.0666 µM.
Work on `Cc1ncnc(C)c1-c1cc(NC(=O)C2CC2)ccc1OCCN1CCC2(CCC(=O)O2)CC1` [Compound 349, N-(3-(4,6-dimethylpyrimidin-5-yl)-4-(2-(2-oxo-1-oxa-8-azaspiro[4.5]decan-8-yl)ethoxy)phenyl)cyclopropanecarboxamide] yielded a Ki [1] of 0.0126 µM.
In the case of `Cc1ncnc(C)c1-c1cc(NC(=O)C2CC2)ccc1OCCN1CCC2(CCOC2=O)CC1` [Compound 350, N-(3-(4,6-dimethylpyrimidin-5-yl)-4-(2-(1-oxo-2-oxa-8-azaspiro[4.5]decan-8-yl)ethoxy)phenyl)cyclopropanecarboxamide], the Ki [1] is reported as 0.0431 µM.
`CO[C@H]1CCN(CCOc2ccc(NC(=O)C3CC3)cc2-c2c(C)ncnc2C)C1` [Compound 352, (S)—N-(3-(4,6-dimethylpyrimidin-5-yl)-4-(2-(3-methoxypyrrolidin-1-yl)ethoxy)phenyl)cyclopropanecarboxamide] was tested, and the Ki [1] was 0.0155 µM.
In the case of `COCCN(C)CCOc1ccc(NC(=O)C2CC2)cc1-c1c(C)ncnc1C` [Compound 354, N-[3-(4,6-dimethylpyrimidin-5-yl)-4-[2-[2-methoxyethyl(methyl)amino]ethoxy]phenyl]cyclopropanecarboxamide], the Ki [1] is reported as 0.0321 µM.
In the case of `CCN(CCOC)CCOc1ccc(NC(=O)C2CC2)cc1-c1c(C)ncnc1C` [Compound 355, N-(3-(4,6-dimethylpyrimidin-5-yl)-4-(2-(ethyl (2-methoxyethyl)amino)ethoxy)phenyl)cyclopropanecarboxamide], the Ki [1] is reported as 0.177 µM.
With `CCCN(CCOC)CCOc1ccc(NC(=O)C2CC2)cc1-c1c(C)ncnc1C` [Compound 356, N-(3-(4,6-dimethylpyrimidin-5-yl)-4-(2-((2-methoxyethyl)(propyl)amino)ethoxy)phenyl)cyclopropanecarboxamide] the Ki [1] was 0.533 µM.
`Cc1ncnc(C)c1-c1cc(NC(=O)C2CC2)ccc1OCCN(C)CCO` [Compound 357, N-(3-(4,6-dimethylpyrimidin-5-yl)-4-(2-((2-hydroxyethyl)(methyl)amino)ethoxy)phenyl)cyclopropanecarboxamide] was tested, and the Ki [1] was 0.0473 µM.
`CCN(CCO)CCOc1ccc(NC(=O)C2CC2)cc1-c1c(C)ncnc1C` [Compound 358, N-(3-(4,6-dimethylpyrimidin-5-yl)-4-(2-(ethyl(2-hydroxyethyl)amino)ethoxy)phenyl)cyclopropanecarboxamide] showed a Ki [1] of 0.0667 µM.
For `CCCN(CCO)CCOc1ccc(NC(=O)C2CC2)cc1-c1c(C)ncnc1C` [Compound 359, N-(3-(4,6-dimethylpyrimidin-5-yl)-4-(2-((2-hydroxyethyl)(propyl)amino)ethoxy)phenyl)cyclopropanecarboxamide], the Ki [1] was 0.102 µM.
For `Cc1ncnc(C)c1-c1cc(NC(=O)C2CC2)ccc1OCCN(C)CCF` [Compound 360, N-(3-(4,6-dimethylpyrimidin-5-yl)-4-(2-((2-fluoroethyl)(methyl)amino)ethoxy)phenyl)cyclopropanecarboxamide], the Ki [1] was 0.011 µM.
In the case of `CCN(CCF)CCOc1ccc(NC(=O)C2CC2)cc1-c1c(C)ncnc1C` [Compound 362, N-[3-(4,6-dimethylpyrimidin-5-yl)-4-[2-[ethyl (2-fluoroethyl)amino]ethoxy]phenyl]cyclopropanecarboxamide], the Ki [1] is reported as 0.0965 µM.
`CCCN(CCF)CCOc1ccc(NC(=O)C2CC2)cc1-c1c(C)ncnc1C` [Compound 363, N-[3-(4,6-dimethylpyrimidin-5-yl)-4-[2-[2-fluoroethyl(propyl)amino]ethoxy]phenyl]cyclopropanecarboxamide] was tested, and the Ki [1] was 0.107 µM.
In the case of `Cc1ncnc(C)c1-c1cc(NC(=O)C2CC2)ccc1OCCN(C)CCS(C)(=O)=O` [Compound 364, N-(3-(4,6-dimethylpyrimidin-5-yl)-4-(2-(methyl(2-(methylsulfonyl)ethyl)amino)ethoxy)phenyl)cyclopropanecarboxamide], the Ki [1] is reported as 0.368 µM.
For `Cc1ncnc(C)c1-c1cc(NC(=O)C2CC2)ccc1OCCN(C)CC[S+](C)[O-]` (centres unmarked) [Compound 365, N-[3-(4,6-dimethylpyrimidin-5-yl)-4-[2-[methyl (2-methylsulfinylethyl)amino]ethoxy]phenyl]cyclopropanecarboxamide], the Ki [1] was 0.232 µM.
For `CCN(C)CCOc1ccc(NC(=O)C2CC2)cc1-c1c(C)ncnc1C` [Compound 366, N-[3-(4,6-dimethylpyrimidin-5-yl)-4-[2-[ethyl(methyl)amino]ethoxy]phenyl]cyclopropanecarboxamide], the Ki [1] was 0.0112 µM.
`CCCN(C)CCOc1ccc(NC(=O)C2CC2)cc1-c1c(C)ncnc1C` [Compound 367, N-(3-(4,6-dimethylpyrimidin-5-yl)-4-(2-(methyl(propyl)amino)ethoxy)phenyl)cyclopropanecarboxamide] gave a Ki [1] of 0.0376 µM.
For `Cc1ncnc(C)c1-c1cc(NC(=O)C2CC2)ccc1OCCN(C)CC1CC1` [Compound 368, N-(4-(2-((cyclopropylmethyl)(methyl)amino)ethoxy)-3-(4,6-dimethylpyrimidin-5-yl)phenyl)cyclopropanecarboxamide], the Ki [1] was 0.0196 µM.
